Read-outs that look alike come from different tables or passages of the source. Blank lines part the entries; values can stand above or below the compound they belong to.
Columns and labels:
[1] = cited from earlier work
[2] = HPLC stability of vecuronium bromide solutions with anionic additives (Example 1); assay type: physicochemical
Description: HPLC System was a Shimadzu VP Series that consists of the following components: SPD-M10A—Diode Array Detector; SIL-10AD—Autosampler; LC-10AT—Pump; SCL-10A—Controller; and Shimadzu EZ Start Version 7.2 SP 1 Revision B—Software.
In this Example a number of anionic compounds, with various pKa's and carbon numbers, were compared for their ability to stabilize vecuronium in solution.
The following chart gives the compositions that were prepared and examined by HPLC for stability over time. Each sample contained approximately 1 mg/mL vecuronium bromide. […] All numerical entries in the chart are actual recorded weights in grams: […]

[3] = Cubic phase-water partitioning of vecuronium (HPLC); assay type: physicochemical
Description: It is this hydrophobic milieu that is central to the invention, in limiting the contact between water and the labile group(s) of the drug.

twitch response = conditions: 0.08 to 0.1 mg/Kg, balanced anesthesia; cited from earlier work
[4] = Shelf-life of vecuronium bromide control solutions (HPLC, 15% potency lost); assay type: physicochemical; conditions: for shelf-life of solution: 1 mg/ml in water, point at which 15% of potency is lost
Description: In the Examples below, where HPLC assay results for vecuronium are reported, the following gives the parameters of the HPLC measurement. HPLC System was a Shimadzu VP Series that consists of the following components: SPD-M10A—Diode Array Detector; SIL-10AD—Autosampler; LC-10AT—Pump; SCL-10A—Controller; and Shimadzu EZ Start Version 7.2 SP 1 Revision B—Software. Chromatographic Parameters: Mobile Phase—60% Acetonitrile, 25% Methanol, 15% 0.1M TMAH (pH=6.5); Column—25 cm×4.6 mm Phenomenex Luna C18 5 μm; Wavelength—210 nm; Injection Volume—5 μL; Flow Rate—1.0 mL/min; Standard Preparation—1 mg/mL in 0.001N HCl/Methanol; and Sample Preparation—1 mg/mL—Undiluted.
In the case of vecuronium at pH 6 and 25° C., the shelf-life of just under 1 week was recorded for both a maleate-TRIS buffer and an HCl-acidified vecuronium solution.

[5] = 25° C. and 40° C. data of Example 1
[6] = with a charged surfactant (sodium glycocholate)

SMILES: CCCCCCCCCCCCCC(=O)OCC(COP(=O)(O)OCC(O)CO)OC(=O)CCCCCCCCCCCCC (stereo not drawn) [DMPG, dimyristoylphosphatidylglycerol]
pKa [1]: approx. 3.0
pKa ([1]; listed as Dimyristoyl phosphatidylglycerol): about 3.0

SMILES: CC(=O)N[C@@H](Cc1c[nH]c2ccccc12)C(=O)O [N-acetyltryptophan]
effect of the additive on vecuronium solution stability (in words) [2, 5]: performed very poorly at the higher temperature
pKa [1]: 3.4

SMILES: CC(=O)O[C@H]1C[C@@H]2CC[C@@H]3[C@H](CC[C@@]4(C)[C@H]3C[C@H]([N+]3(C)CCCCC3)[C@@H]4OC(C)=O)[C@@]2(C)C[C@@H]1N1CCCCC1 [Vecuronium, vecuronium bromide]
KQW (cubic-water partition coefficient) [3, 6]: 10,000
concentration in the aqueous phase [3, 6]: 1 µg/mL
concentration in the cubic phase [3, 6]: 10600 µg/mL
log KQW [3, 6]: +4
KQW (cubic-water partition coefficient) ([3]; without a charged surfactant): 1,667
concentration in the aqueous phase ([3]; without a charged surfactant): 6 µg/mL
concentration in the cubic phase ([3]; without a charged surfactant): 10000 µg/mL
log KQW ([3]; without a charged surfactant): +3.2
time to first depression of twitch response (twitch response): approximately 1 minute
shelf-life of solution ([4]; pH 6.0, 4° C.): 5 weeks
shelf-life of solution ([4]; pH 6.0, 25° C.): 1 week
time until potency is reduced to 85% of initial ([4]; control solution at same pH (5.2) and temperature (25° C.)): about 2 weeks
shelf-life ([4]; pH 6, 25° C., both maleate-TRIS buffer and HCl-acidified solution): under 1 week

effect of the additive on vecuronium solution stability (in words) [2]: most stable solutions
SMILES: O=S(=O)(O)c1ccccc1 [benzenesulfonic, benzenesulfonic acid]

SMILES: C[C@H](CCC(=O)O)[C@H]1CC[C@H]2[C@@H]3CC[C@@H]4C[C@H](O)CC[C@]4(C)[C@H]3C[C@H](O)[C@]12C [deoxycholic acid]
pKa [1]: about 5.7

effect of the additive on vecuronium solution stability (in words) [2]: most stable solutions
SMILES: O=C(O)c1cc(O)ccc1O [gentisic, gentisic acid]

SMILES: C[C@H](CCC(=O)NCC(=O)O)[C@H]1CC[C@H]2[C@@H]3[C@H](O)C[C@@H]4C[C@H](O)CC[C@]4(C)[C@H]3C[C@H](O)[C@]12C [glycocholic, glycocholic acid]
pKa [1]: approximately 3.5
pKa ([1]; listed as glycocholate): 3.5

SMILES: O=C(O)/C=C\C(=O)O [maleic]
pKa [1]: 3.9

effect of the additive on vecuronium solution stability (in words) [2, 5]: equally bad
SMILES: CCCCCCCC(=O)O [octanoic, Octanoic acid]

effect of the additive on vecuronium solution stability (in words) [2]: most stable solutions
SMILES: O=C1NS(=O)(=O)c2ccccc21 [saccharin]
pKa [1]: 2.0

effect of the additive on vecuronium solution stability (in words) [2]: most stable solutions
SMILES: Cc1ccc(S(=O)(=O)O)cc1 [toluenesulfonic, toluenesulfonic acid]
